From patent US7608716B2, “Pyrazolonaphthyridine derivative” (Aska Pharmaceutical Co., Ltd., priority 2002, dated 2009)

How the values were obtained:
[1] = test system: T1, PDE IV isozymes separated from U937 culture cells; test: PDE IV inhibition ([3H]-cAMP hydrolysis); type: biochemical; settings: cAMP 1 μM substrate, 30° C., 20 minutes
T1 construct: PDE IV isozymes as used herein were separated from U937 culture cells by using an anion exchange chromatography
Method: PDE IV isozymes as used herein were separated from U937 culture cells by using an anion exchange chromatography. Type IV PDE isozyme was admixed with ethylene glycol (EG) to adjust the final EG concentration to 30%, then stored at −20° C. and diluted when used. The enzymatic activity for PDE IV was measured using cAMP as a substrate.
Each test compound was dissolved in DMSO to adjust the final concentration to 1% (2.5 μl/tube).
Incubation Buffer Solution (pH7.5):
• Tris-HCl (50 mM), magnesium chloride (6 mM), dithiothreitol (2.5 mM), 5-nucleotidase (4 μg/ml), bovine serum albumin (0.23 mg/ml), and cAMP (1 μM).
A mixture of the aforementioned test compound solution and the buffer solution was incubated at 30° C. for 20 minutes. The reaction was quenched by admixing with 1 ml of anion exchange resin slurry (AG1-X8, 200-400 meshes, chloride form; Bio-Rad) to absorb unreacted substrates. After the reaction stopped, the mixture was centrifuged at 800×g for 10 minutes, and the resulting supernatant was collected with vials in 250 μl aliquots. To each vial was added 5 ml of ACS-II (scintillator, Amersham). The radioactivity was measured with a liquid scintillator counter for [^3H]-adenosine and set as the PDE IV activity.

[2] = test system: TNF-α production; test: Inhibition of TNF-α production in galactosamine- and LPS-stimulation; type: in vivo; settings: Mus musculus; C3H/HeN mice, oral, 1 hour before galactosamine/LPS i.v.; serum TNF-α by ELISA 1 hour later; read-out: Inhibition of TNF-α production ED50: mg/kg orally
Method: A suspension of each test compound in 0.5% CMC-Na solution was administered orally to C3H/HeN mice at a dose of 0.10 to 10 mg/kg. One hour later, the animals received intravenously galactosamine at a dose of 800 mg/kg and LPS at a dose 5 μg/kg to raise the induction of TNF-α production. One hour later after the galactosamine- and LPS-administration, amounts of TNF-α in serum samples were measured by ELISA, and ED50 was obtained. Roflumilast and SB207499 were used for the reference compounds in this assay.

[3] = test system: actively sensitized guinea pigs; test: Inhibition of antigen-induced immediate asthmatic response (airway resistance, Konzett-Rossler); type: in vivo, Hartley guinea pigs; settings: Cavia porcellus, oral, 60 minutes prior to antigen-challenge, reduction of increase in airway resistance, read-out: Inhibition of Asthmatic response ED50: mg/kg orally
Method: Male Hartley outbred guinea pigs were sensitized by administering intraperitoneally physiological saline (0.5 ml) containing ovalbumin (1 mg, antigen) and 5×10^9 inactivated Bordetella pertussis dead cells (adjuvant). Eleven to thirteen days after the first sensitization, 0.05 ml of an ovalbumin solution (1 mg/ml) (ovalbumin is dissolved in physiological saline) was administered to the lateroabdominal region of each guinea pig intracutaneously. An establishment of sensitization was checked relying on cutaneous reaction. Only guinea pigs wherein significant reddening responses occurred 5 to 10 minutes later were employed in the next measurement test for airway resistance.
The guinea pigs (3 animals per group) actively sensitized in the above step (1) were employed to measure for their airway pressure according to Konzett-Rossler method (Arch. Exp. Path. Pharmakol., 195, 71 (1940)).
Thirteen days after the final sensitization, guinea pigs fasted overnight, and were on the next day anesthetized with a pentobarbital solution (30 mg/1.2 ml/kg, dissolved in physiological saline, intraperitoneal administration). After the guinea pigs were fixed in a supine position, their trachea was incised followed by insertion with one port of a 4-port cannula. Among the remaining 3 ports, 2 ports were connected to an artificial respirator (Model 683, Harvard). The animals were ventilated with 10 ml/kg of air per ventilation at a rate of 60 beats/min via the artificial respirator from the cannula. One port remainder was connected to a respiratory amplifier (AR-601G, Nihon Kohden, Japan) via an airflow resistance tube (TV-241T, Nihon Kohden, Japan) and a differential pressure transducer (TP-602T, Nihon Kohden, Japan) connected with a control box (RY-111S, Nihon Kohden, Japan). From a catheter inserted into a left carotid artery, blood pressures were monitored with a blood pressure measurement unit (AP641G, NEC Corp., Japan) via a blood pressure transducer (TP-300T, Nihon Kohden, Japan), and heart rates were recorded on a thermal recorder (WT-685G, Nihon Kohden, Japan), relying on blood pressure pulse waves after being led to a cardiograph unit (AT601G, Nihon Kohden, Japan).
After airway pressure became stable, an ovalbumin solution (1 mg/ml, dissolved in physiological saline) was administered at a dose of 1 ml/kg via a tube with which the right jugular vein of guinea pigs was cannulated.
Each test compound was suspended in 0.5% CMC-Na solution and administered orally with an oral sound at a dose of 0.03 to 20 mg/2 ml/kg 60 minutes prior to the antigen-challenge. Control groups received only 0.5% CMC-Na solution in an equivalent amount. The pentobarbital-anesthetization and tracheal incision were conducted 30 minutes prior to the antigen-challenge.
Each percent reduction of increase in airway resistance (each test compound-administered group versus control group) was calculated according to the equation given below. ED50 was obtained by Probit method.

SMILES | IC50 [1] | melting point | further results
O=c1c2c(Cc3ccccc3[N+](=O)[O-])n[nH]c2c2cccnc2n1-c1ccccc1 [Example No. 26, 3-(2-nitrobenzyl)-5-phenyl-1H-pyrazolo[4,3-c][1,8]naphthyridin-4 (5H)-one] | 0.02 µM | – | –
COc1ccc(Cc2n[nH]c3c2c(=O)n(-c2ccccc2)c2ncccc32)cc1 [Example No. 21, 3-(4-methoxybenzyl)-5-phenyl-1H-pyrazolo[4,3-c][1,8]naphthyridin-4 (5H)-one] | 0.088 µM | – | –
O=C(O)c1ccc(CCc2n[nH]c3c2c(=O)n(-c2ccccc2)c2ncccc32)cc1 [Example No. 14, 3-[2-(4-carboxyphenyl)ethyl]-5-phenyl-1H-pyrazolo[4,3-c][1,8]naphthyridin-4 (5H)-one] | 0.057 µM | – | –
O=c1c2c(CCc3cc[n+]([O-])cc3)n[nH]c2c2cccnc2n1-c1ccccc1 [Example No. 5, 5-phenyl-3-[2-(1-oxypyridin-4-yl)ethyl]-1H-pyrazolo[4,3-c][1,8]-naphthyridin-4 (5H)-one] | 0.067 µM | 285 °C (dec.) | –
Nc1ccc(CCc2n[nH]c3c2c(=O)n(-c2ccccc2)c2ncccc32)cc1 [Example No. 13, 3-[2-(4-aminophenyl)ethyl]-5-phenyl-1H-pyrazolo[4,3-c][1,8]naphthyridin-4 (5H)-one] | 0.031 µM | – | –
COc1ccc([C@]2(C#N)CC[C@@H](C(=O)O)CC2)cc1OC1CCCC1 [SB207499, cis-4-cyano-4-[3-(cyclopentyloxy)-4-methoxyphenyl]cyclohexane-1-carboxylic acid, reference compound] | – | – | ED50 [2]: 3.3 mg/kg; ED50 [3]: > 20 mg/kg
O=c1c2c(Cc3cccs3)n[nH]c2c2cccnc2n1-c1ccccc1 [Example No. 23, 3-(2-thienylmethyl)-5-phenyl-1H-pyrazolo[4,3-c][1,8]naphthyridin-4 (5H)-one] | 0.082 µM | – | –
O=c1c2c(CCc3ccncc3)n[nH]c2c2cccnc2n1-c1cccc([N+](=O)[O-])c1 [Example No. 6, 5-(3-nitrophenyl)-3-[2-(pyridin-4-yl)ethyl]-1H-pyrazolo[4,3-c][1,8]naphthyridin-4 (5H)-one] | 0.025 µM | 161 to 165 °C | –
COc1ccc(C2CNC(=O)C2)cc1OC1CCCC1 (single isomer, unassigned; (-)) [Rolipram, (−)-4-[3-(cyclopentyloxy)-4-methoxyphenyl]-2-pyrrolidinone] | – | – | ED50 [3]: 0.51 mg/kg
COc1ccccc1Cc1n[nH]c2c1c(=O)n(-c1ccccc1)c1ncccc21 [Example No. 22, 3-(2-methoxybenzyl)-5-phenyl-1H-pyrazolo[4,3-c][1,8]naphthyridin-4 (5H)-one] | 0.026 µM | – | –
COc1ccc(Cc2n[nH]c3c2c(=O)n(-c2ccccc2)c2ncccc32)cc1OC (hydrate or solvate) [Example 28, 3-(3,4-dimethoxybenzyl)-5-phenyl-1H-pyrazolo[4,3-c][1,8]naphthyridin-4 (5H)-one] | – | 230 to 232 °C | –
CS(=O)(=O)Nc1ccc(Cc2n[nH]c3c2c(=O)n(-c2ccccc2)c2ncccc32)cc1 [Example 49, 3-(4-methanesulfonylaminobenzyl)-5-phenyl-1H-pyrazolo[4,3-c][1,8]naphthyridin-4 (5H)-one] | – | 306 to 307 °C | –
O=c1c2c(CCc3ccc([N+](=O)[O-])cc3)n[nH]c2c2cccnc2n1-c1ccccc1 (hydrate or solvate) [Example 11, 3-[2-(4-nitrophenyl)ethyl]-5-phenyl-1H-pyrazolo[4,3-c][1,8]naphthyridin-4 (5H)-one] | – | 260 to 262 °C | –
COc1ccccc1Cc1n[nH]c2c1c(=O)n(-c1ccccc1)c1ncccc21 (hydrate or solvate) [Example No. 22, 3-(2-methoxybenzyl)-5-phenyl-1H-pyrazolo[4,3-c][1,8]naphthyridin-4 (5H)-one] | – | 276 to 277 °C | –

Continued, in another order:

IC50 [1] | melting point | SMILES | further results
0.035 µM | – | O=c1c2c(Cc3ccccc3)n[nH]c2c2cccnc2n1-c1cccc(F)c1 [Example No. 58, 3-benzyl-5-(3-fluorophenyl)-1H-pyrazolo[4,3-c][1,8]-naphthyridin-4 (5H)-one] | –
0.032 µM | 297 to 300 °C | O=C(O)Cc1ccc(Cc2n[nH]c3c2c(=O)n(-c2ccccc2)c2ncccc32)cc1 [Example No. 46, 3-(4-carboxymethylbenzyl)-5-phenyl-1H-pyrazolo[4,3-c][1,8]naphthyridin-4 (5H)-one] | –
0.023 µM | – | O=c1c2c(Cc3ccccc3)n[nH]c2c2cccnc2n1-c1cccc([N+](=O)[O-])c1 [Example No. 56, 3-benzyl-5-(3-nitrophenyl)-1H-pyrazolo[4,3-c][1,8]-naphthyridin-4 (5H)-one] | –
0.021 µM | – | COc1ccc(OC)c(Cc2n[nH]c3c2c(=O)n(-c2ccccc2)c2ncccc32)c1 [Example No. 27, 3-(2,5-dimethoxybenzyl)-5-phenyl-1H-pyrazolo[4,3-c][1,8]naphthyridin-4 (5H)-one] | –
0.086 µM | – | Nc1ccc(Cc2n[nH]c3c2c(=O)n(-c2ccccc2)c2ncccc32)cc1 [Example No. 43, 3-(4-aminobenzyl)-5-phenyl-1H-pyrazolo[4,3-c][1,8]-naphthyridin-4 (5H)-one] | –
0.028 µM | – | CCOC(=O)Cc1ccc(Cc2n[nH]c3c2c(=O)n(-c2ccccc2)c2ncccc32)cc1 [Example No. 32, 3-(4-ethoxycarbonylmethylbenzyl)-5-phenyl-1H-pyrazolo[4,3-c][1,8]naphthyridin-4 (5H)-one] | –
0.049 µM | – | COc1ccc(Cc2n[nH]c3c2c(=O)n(-c2ccccc2)c2ncccc32)c(OC)c1 [Example No. 30, 3-(2,4-dimethoxybenzyl)-5-phenyl-1H-pyrazolo[4,3-c][1,8]naphthyridin-4 (5H)-one] | –
0.028 µM | – | N#Cc1cccc(-n2c(=O)c3c(Cc4ccccc4)n[nH]c3c3cccnc32)c1 [Example No. 53, 3-benzyl-5-(3-cyanophenyl)-1H-pyrazolo[4,3-c][1,8]-naphthyridin-4 (5H)-one] | –
0.089 µM | 316 to 317 °C | O=c1c2c(Cc3ccc(O)cc3)n[nH]c2c2cccnc2n1-c1ccccc1 [Example No. 41, 3-(4-hydroxybenzyl)-5-phenyl-1H-pyrazolo[4,3-c][1,8]-naphthyridin-4 (5H)-one] | –
